Like-named read-outs stand apart in the source and are kept apart here.
Tests used:
[1] = test system: iCell endothelial cells (human iPSC-derived ECs); experiment: High-content imaging cytotoxicity in iCell endothelial cells, 24 h; type: cell-based; conditions: Homo sapiens, Endothelial cell, iPSC-EC; for viability at 0.1 µM / activity at 0.1 µM: 0.10 µM; for minimal effective concentration: 100.00 = highest concentration tested
Procedure, shortened: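 Human iPSC-derived endothelial cells (passages 1–5) were grown to a fibronectin-coated monolayer, then exposed 24 h at 37 °C with 0.5% DMSO vehicle. Staining was Hoechst 33342, MitoTracker Orange and calcein AM, read by high-content imaging. Point of departure came from 4-parameter logistic fits, with a 1-SD vehicle cutoff and 100 µM as the top concentration.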

[2] = test system: iCell endothelial cells (human iPSC-derived ECs); experiment: Tube formation (tubulogenesis) assay in iCell endothelial cells, 18 h; type: cell-based; conditions: Homo sapiens, Endothelial cell, iPSC-EC; for activity at 0.1 µM: 0.10 µM; for minimal effective concentration: 100.00 = highest concentration tested
Procedure, shortened: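 iCell ECs (passages 1–5) seeded 7,500 cells/well on reduced-growth-factor Geltrex in starvation medium, exposed overnight at 37°C to compounds in triplicate concentration–response (0.5% DMSO vehicle). Calcein AM staining, 4× imaging, angiogenesis image analysis; readouts normalized to vehicle, four-parameter logistic fit, POD at 1 SD of vehicle; 100 μM assigned NOAEL if no response.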

[3] = 0.00 µM = 100.00, read-out: endo.cyto.24hr
[4] = 0.00 µM = 100.00, read-out: endo.mito.24hr
[5] = 0.00 µM = 100.00, read-out: endo.mitoint.24hr
[6] = 0.00 µM = 100.00, read-out: endo.nma.24hr
[7] = 0.00 µM = 100.00, read-out: endo.tc.24hrs
[8] = 0.00 µM = 100.00, read-out: endo.mtl.18hr
[9] = 0.00 µM = 100.00, read-out: endo.tlps.18hr
[10] = 0.00 µM = 100.00, read-out: endo.tta.18hr
[11] = 0.00 µM = 100.00, read-out: endo.ttl.18hr

SMILES: Clc1ccc(-c2cc(Cl)c(Cl)c(Cl)c2)cc1Cl [PCB126]
- viability at 0.01 µM [1, 3]: 100%
- activity at 0.01 µM [1, 4]: 99.1%
- activity at 0.01 µM [1, 5]: 79.8%
- activity at 0.01 µM [1, 6]: 97.4%
- viability at 0.01 µM [1, 7]: 100%
- viability at 0.1 µM [1, 3]: 95%
- activity at 0.1 µM [1, 4]: 95.2%
- activity at 0.1 µM [1, 5]: 106%
- activity at 0.1 µM [1, 6]: 97.8%
- viability at 0.1 µM [1, 7]: 95%
- viability at 1 µM [1, 3]: 93.4%
- activity at 1 µM [1, 4]: 93.4%
- activity at 1 µM [1, 5]: 100%
- activity at 1 µM [1, 6]: 101%
- viability at 1 µM [1, 7]: 93.4%
- viability at 10 µM [1, 3]: 87.7%
- activity at 10 µM [1, 4]: 87.6%
- activity at 10 µM [1, 5]: 110%
- activity at 10 µM [1, 6]: 103%
- viability at 10 µM [1, 7]: 87.7%
- viability at 100 µM [1, 3]: 75.3%
- activity at 100 µM [1, 4]: 74.9%
- activity at 100 µM [1, 5]: 151%
- activity at 100 µM [1, 6]: 98.8%
- viability at 100 µM [1, 7]: 76.9%
- minimal effective concentration ([1]; read-out: endo.cyto.24hr POD): 0.33 µM
- minimal effective concentration ([1]; read-out: endo.mito.24hr POD): 0.33 µM
- minimal effective concentration ([1]; read-out: endo.mitoint.24hr POD): 10.2 µM
- minimal effective concentration ([1]; read-out: endo.nma.24hr POD): 100 µM
- minimal effective concentration ([1]; read-out: endo.tc.24hrs POD): 0.34 µM
- activity at 0.01 µM [2, 8]: 99.5%
- activity at 0.01 µM [2, 9]: 175%
- activity at 0.01 µM [2, 10]: 91%
- activity at 0.01 µM [2, 11]: 90.1%
- activity at 0.1 µM [2, 8]: 125%
- activity at 0.1 µM [2, 9]: 110%
- activity at 0.1 µM [2, 10]: 130%
- activity at 0.1 µM [2, 11]: 136%
- activity at 1 µM [2, 8]: 104%
- activity at 1 µM [2, 9]: 99.1%
- activity at 1 µM [2, 10]: 126%
- activity at 1 µM [2, 11]: 125%
- activity at 10 µM [2, 8]: 93.8%
- activity at 10 µM [2, 9]: 52.4%
- activity at 10 µM [2, 10]: 91.2%
- activity at 10 µM [2, 11]: 100%
- activity at 100 µM [2, 8]: 74.1%
- activity at 100 µM [2, 9]: 40.1%
- activity at 100 µM [2, 10]: 41.4%
- activity at 100 µM [2, 11]: 39.6%
- minimal effective concentration ([2]; read-out: endo.mtl.18hr POD): 28.1 µM
- minimal effective concentration ([2]; read-out: endo.tlps.18hr POD): 4.68 µM
- minimal effective concentration ([2]; read-out: endo.tta.18hr POD): 25.7 µM
- minimal effective concentration ([2]; read-out: endo.ttl.18hr POD): 38.9 µM

Source: paper PMC7377239, “Cardiovascular Effects of Polychlorinated Biphenyls and Their Major Metabolites” (Environmental Health Perspectives, 2020)
